Series [1] in a line: The drug is tested on Z-027 corresponding to metagenome with ENA study accession number: PRJEB37062 and ENA sample accession number: ERS12561826 for biotransformation under anaerobic condition. The drug concentrations were measured over 9 timepoints collected between 0 and 24 hours of incubation by liquid-chromatography-coupled mass spectrometry (LC–MS). To be noted: 2 µM.
A short description of series [2]: The drug is tested on Z-013 corresponding to rabbit gut metagenome with ENA study accession number: PRJEB37062 and ENA sample accession number: ERS12561813 for biotransformation under anaerobic condition. The drug concentrations were measured over 9 timepoints collected between 0 and 24 hours of incubation by liquid-chromatography-coupled mass spectrometry (LC–MS). To be noted: 2 µM.

Series [3] in a line: The drug is tested on Z-011 corresponding to mouse gut metagenome with ENA study accession number: PRJEB37062 and ENA sample accession number: ERS12561811 for biotransformation under anaerobic condition. The drug concentrations were measured over 9 timepoints collected between 0 and 24 hours of incubation by liquid-chromatography-coupled mass spectrometry (LC–MS). To be noted: 2 µM.

The nature of series [4]: The drug is tested on Z-010 corresponding to metagenome with ENA study accession number: PRJEB37062 and ENA sample accession number: ERS12561810 for biotransformation under anaerobic condition. The drug concentrations were measured over 9 timepoints collected between 0 and 24 hours of incubation by liquid-chromatography-coupled mass spectrometry (LC–MS). To be noted: 2 µM.

Series [5] can be described thus: The drug is tested on Z-009 corresponding to pig gut metagenome with ENA study accession number: PRJEB37062 and ENA sample accession number: ERS12561809 for biotransformation under anaerobic condition. The drug concentrations were measured over 9 timepoints collected between 0 and 24 hours of incubation by liquid-chromatography-coupled mass spectrometry (LC–MS). The following applies: 2 µM.

Series [6] is described as follows: The drug is tested on Z-006 corresponding to mouse gut metagenome with ENA study accession number: PRJEB37062 and ENA sample accession number: ERS12561806 for biotransformation under anaerobic condition. The drug concentrations were measured over 9 timepoints collected between 0 and 24 hours of incubation by liquid-chromatography-coupled mass spectrometry (LC–MS). To be noted: 2 µM.

The nature of series [7]: The drug is tested on Z-005 corresponding to metagenome with ENA study accession number: PRJEB37062 and ENA sample accession number: ERS12561805 for biotransformation under anaerobic condition. The drug concentrations were measured over 9 timepoints collected between 0 and 24 hours of incubation by liquid-chromatography-coupled mass spectrometry (LC–MS). The following applies: 2 µM.

Series [8] is described as follows: The drug is tested on WLS-370 corresponding to human gut metagenome with ENA study accession number: PRJEB37062 and ENA sample accession number: ERS12561793 for biotransformation under anaerobic condition. The drug concentrations were measured over 9 timepoints collected between 0 and 24 hours of incubation by liquid-chromatography-coupled mass spectrometry (LC–MS). To be noted: 2 µM.

Series [9] is described as follows: The drug is tested on WLS-220 corresponding to human gut metagenome with ENA study accession number: PRJEB37062 and ENA sample accession number: ERS12561769 for biotransformation under anaerobic condition. The drug concentrations were measured over 9 timepoints collected between 0 and 24 hours of incubation by liquid-chromatography-coupled mass spectrometry (LC–MS). To be noted: 2 µM.

Series [10] can be described thus: The drug is tested on WLS-073 corresponding to human gut metagenome with ENA study accession number: PRJEB37062 and ENA sample accession number: ERS12561749 for biotransformation under anaerobic condition. The drug concentrations were measured over 9 timepoints collected between 0 and 24 hours of incubation by liquid-chromatography-coupled mass spectrometry (LC–MS). To be noted: 2 µM.

For series [11] the following is noted: human gut metagenome, 24 h, 2 µM.
For series [12] the following is noted: human gut metagenome, 24 h, 2 µM. This is another data set of the same source.
The conditions of series [13]: human gut metagenome, 24 h, 2 µM. The source holds these as a separate data set.
For series [14] the following is noted: human gut metagenome, 24 h, 2 µM. This is another data set of the same source.
The conditions of series [15]: human gut metagenome, 24 h, 2 µM. This is another data set of the same source.
The conditions of series [16]: human gut metagenome, 24 h, 2 µM. This is another data set of the same source.
For series [17] the following is noted: human gut metagenome, 24 h, 2 µM. The source holds these as a separate data set.
The conditions of series [18]: human gut metagenome, 24 h, 2 µM. This is another data set of the same source.
The conditions of series [19]: human gut metagenome, 24 h, 2 µM. The source holds these as a separate data set.
For series [20] the following is noted: human gut metagenome, 24 h, 2 µM. The source holds these as a separate data set.

This note sets out measurements from ChEMBL document CHEMBL5724914, “Linking interpersonal differences in gut microbiota composition and drug biotransformation activity” (2024).
Note: call rule not given here.

Take `CN1C(C(=O)Nc2ccccn2)=C(O)c2sccc2S1(=O)=O` [TENOXICAM]: the “Bacterial Biotransformation” value in [1], in [2], in [3], in series [4], in [5] and in series [6] was “Compound NOT metabolized” throughout. For the same compound, the “Bacterial Biotransformation” value in series [7], in [8], in [9], in [10], in series [11] and in [12] was “Compound NOT metabolized” in each case. The “Bacterial Biotransformation” value in [13], in [14], in series [15], in [16], in [17] and in [18] was “Compound NOT metabolized” throughout. For the same compound, the results for the “Bacterial Biotransformation” value in [19] and in [20] were “Compound NOT metabolized” and “Compound metabolized”, respectively.

`O=c1n(CCCN2CCN(c3cccc(Cl)c3)CC2)nc2ccccn12` [TRAZODONE]: the “Bacterial Biotransformation” value is reported as “Compound NOT metabolized” in [1]; “Compound NOT metabolized” in series [2]; “Compound NOT metabolized” in series [3]; “Compound metabolized” in series [4]; “Compound NOT metabolized” in series [5]; “Compound NOT metabolized” in [6]. Further, the “Bacterial Biotransformation” value in series [7] is recorded as “Compound NOT metabolized”; in series [8], “Compound metabolized”; in series [9] it was “Compound metabolized”; in [10], “Compound metabolized”; in series [11] it was “Compound NOT metabolized”; in series [12] it was “Compound NOT metabolized”. In addition, the “Bacterial Biotransformation” value in series [13] is “Compound NOT metabolized”; in series [14], “Compound metabolized”; in series [15], “Compound NOT metabolized”; in [16] it was “Compound metabolized”; in series [17], “Compound NOT metabolized”; in series [18], “Compound metabolized”. Also, the “Bacterial Biotransformation” value in series [19] and in series [20] was “Compound NOT metabolized” in each case.

Take `OC(CCN1CCCCC1)(c1ccccc1)C1CCCCC1` (stereo not given) [TRIHEXYPHENIDYL]: the “Bacterial Biotransformation” value in series [1] is “Compound NOT metabolized”; in series [2], “Compound NOT metabolized”; in series [3], “Compound NOT metabolized”; in [4] it was “Compound metabolized”; in series [5], “Compound metabolized”; in series [6], “Compound NOT metabolized”. Besides, the “Bacterial Biotransformation” value in [7] was “Compound metabolized”; in series [8], “Compound metabolized”; in series [9], “Compound NOT metabolized”; in series [10] it was “Compound metabolized”; in [11], “Compound metabolized”; in [12] it was “Compound metabolized”. In addition, the “Bacterial Biotransformation” value in series [13], in series [14], in series [15], in series [16], in [17] and in series [18] was “Compound metabolized” throughout. Besides, the “Bacterial Biotransformation” value in series [19] and in series [20] was “Compound NOT metabolized” throughout.

For the compound `Cc1ccc(/C(=C\CN2CCCC2)c2ccccn2)cc1` [TRIPROLIDINE], the “Bacterial Biotransformation” value in series [1], in series [2], in series [3], in series [4], in [5] and in series [6] was “Compound NOT metabolized” in each case. In addition, the “Bacterial Biotransformation” value in [7], in series [8], in [9], in series [10], in series [11] and in series [12] was “Compound NOT metabolized” in each case. In addition, the “Bacterial Biotransformation” value is “Compound NOT metabolized” in [13]; “Compound NOT metabolized” in [14]; “Compound NOT metabolized” in series [15]; “Compound NOT metabolized” in series [16]; “Compound NOT metabolized” in series [17]; “Compound metabolized” in [18]. Besides, the “Bacterial Biotransformation” value in series [19] and in series [20] was “Compound NOT metabolized” in each case.

Consider `Cc1cn([C@H]2C[C@H](N=[N+]=[N-])[C@@H](CO)O2)c(=O)[nH]c1=O` [ZIDOVUDINE], for which the “Bacterial Biotransformation” value is given as “Compound metabolized” in [1]; “Compound NOT metabolized” in series [2]; “Compound metabolized” in [3]; “Compound NOT metabolized” in series [4]; “Compound NOT metabolized” in series [5]; “Compound NOT metabolized” in series [6]. In addition, the “Bacterial Biotransformation” value in series [7], in series [8], in [9], in [10], in [11] and in [12] was “Compound NOT metabolized” throughout. For the same compound, the “Bacterial Biotransformation” value is listed as “Compound NOT metabolized” in series [13]; “Compound NOT metabolized” in series [14]; “Compound metabolized” in [15]; “Compound NOT metabolized” in series [16]; “Compound NOT metabolized” in series [17]; “Compound NOT metabolized” in series [18]. The “Bacterial Biotransformation” value in [19] is on record as “Compound metabolized”; in [20], “Compound NOT metabolized”.
